# How the values were obtained:
# [1] = test system: CD11b+ monocytes; assay: In vivo uptake assay of Aβ42 after immunization or passive immunotherapy; design: species or system C57BL/6 mice; settings: Example 20
# Experimental: Mice: C57BL/6 female mice were purchased from Charles River. […]
# […] At day 22, 5 μg per mouse of fluorescent HiLyte Fluor™ 488-labeled Amyloid β1-42 (Anaspec, Fremont, Calif.) was injected in the tail vein. […] Plasma of pooled blood was decanted and saved for measurement of antibody titres by ELISA. Red blood cell lysis was performed twice with Ammonium Chloride-based Buffer (Sigma, Steinheim, Germany) and cells were counted with the EasyCount™ System (Immunicon).
# FACS analysis: 500,000 cells were aliquoted in a 96-well plate, washed once, incubated for 10 min. on ice in the presence of Rat anti-Mouse CD16/CD32 (clone 2.4G2—BD Fc Block™) and further stained for 30 min. with a combination of the following directly conjugated antibodies at their pre-determined optimal concentration: PE-Hamster anti-Mouse CD3 (clone 145-2C11), Rat anti-Mouse CD45R/B220 (clone RA3-6B2), Rat anti-Mouse Ly-6G (clone 1A8), Mouse anti-Mouse NK1.1 (clone PK136), APC-conjugated Rat anti-Mouse CD11b (clone M1/70), PE-Cy7-conjugated Hamster anti-Mouse CD11c (clone HL3), (all from BD PharMingen). Cells were finally washed twice and fixed for 15 min. with a 2% paraformaldehyde solution in PBS. FMOs controls were always included in the assays.
# Samples were acquired on a flow cytometer (BD FACSCanto II) and data analyzed with the FACSDiva software (BD Biosciences).
# Monocytes were identified by their Side/Forward scatter properties, excluding debris and gated as CD3-/CD45R/B220-/Ly-6G-/NK1.1-(Lineage-)/CD11b+ cells. Aβ uptake was assessed by reporting the percentage and Mean Fluorescence Intensity (GeoMean) of positive HiLyte Fluor™ 488 Aβ1-42 cells among gated monocytes.
# Mice were passively immunized with a constant dose of anti Aβ monoclonal antibody (15 ug of 2E7)+different dose of immunomodulators (CRX601 or CRX601/AS03 or AS01B). […] Red blood cell lysis was performed twice with Ammonium Chloride-based Buffer (Sigma, Steinheim, Germany) and cells were counted with the EasyCount™ System (Immunicon). […]
# [2] = test system: spatial learning and memory; assay: T-water maze in APP/PS1 mice; assay type: in vivo, APPSwe/PS1 mice
# Experimental: Five groups of APPSwe/PS1 mice received one a week for a period of 12 weeks the following treatment: • Gr1: APPSwe/PS1+NaCl 0.9% n(=20), i.p. injections • Gr4: APPSwe/PS1+CRX527 (20 μg/mouse, 130 μl, n=10), i.p. injections • Gr5: […] (50 μg/mouse, 130 μl, n=10), i.p. injections • Gr8 APPSwe/PS1+AS15 ( 1/10th of human dose, 50 μl, n=10), i.m. injections • Gr9: APPSwe/PS1+AS01B ( 1/10th of human dose, 50 μl, n=10), i.m. injections
# Mice were tested during the “light on” phase of the day. Behavioral experimenter was blinded to the genetic and treatment status of animals. To assess hippocampal-dependent spatial learning and memory, mice were trained in the T-water maze task. In this paradigm, we evaluate the mouse's ability to remember the spatial location of submerged platform. The T-maze apparatus (length of stem, 64 cm; length of arms, 30 cm; width, 12 cm; height of walls, 16 cm) was made of clear fiberglass and filled with water (23±1° C.) at a height of 12 cm. A platform (11×11 cm) was placed at the end of the target arm and was submerged 1 cm below the surface. The acquisition phase allows to evaluate animals for left-right spatial learning. During the first two trials, platforms were placed on each arms of the maze to test the spontaneous turning preference of the mouse. After these two trials, the least chosen arm was reinforced by the escape platform. The mice were placed in the stem of the T-maze and choose to swim either left or right until they found the submerged platform and escape to it, to a maximum of 60 s. After reaching the platform, the mice remained on it for 20 s and then were immediately placed back in the maze. […] Repeated trials were presented on the same day up to a maximum of 48 trials. A rest period of at least 10-15 min intervened between each block of 10 trials. A mouse was considered to have learned the task when it made no errors in a block of five consecutive trials. The reversal learning phase was then conducted 48 h later. During this phase, the same protocol was repeated, except that the mice were trained to find the escape platform on the opposite side to that on which they had learned on acquisition phase. The number of trials to reach the criterion (five of five correct choices made on consecutive trials) was measured as well as the latency to find the escape platform.
smiles,measurement,setting,value
CCCCCCCCCCC[C@H](CC(=O)N[C@H]1[C@H](OC[C@H](NC(=O)C[C@@H](CCCCCCCCCCC)OCCCCCCCCCC)C(=O)O)O[C@H](CO)[C@@H](OP(=O)(O)O)[C@@H]1OC(=O)C[C@@H](CCCCCCCCCCC)OCCCCCCCCCC)OCCCCCCCCCC [CRX601],antibody-mediated Aβ uptake when combined with AS03 emulsion,[1]; CRX601 20 ug with AS03,partially quenched
same,antibody-mediated Aβ uptake,"[1]; CRX601 at 20 ug single i.m., 15 ug of 2E7, 24 hrs",highest Aβ uptake
same,dose dependence of antibody-mediated Aβ uptake,"[1]; different doses, constant 2E7",Dose-response observed
same,behaviour as assessed by T water maze testing,"[2]; Example 21, twelve weekly injections, vs non treated mice",significant improvements in behaviour
same,"cognitive functions, T-water maze","[2]; Example 22, i.m. 12x weekly, CRX601 2 μg, CRX601 2 ug in AS03, 3D MPL 5 ug, AS01B 1/10 human dose, vs PBS, unpaired t-tests",significant improvement of their cognitive functions
